From ChEMBL document CHEMBL2150974 (J Med Chem, 2012)
pIC50: −log10 of the molar value. Calls of active or inactive are those of the source. The rule behind the calls is not given here.

Experiments:
[1] = target: Tyrosine-protein kinase receptor UFO (Homo sapiens) (UniProt P30530); test: Inhibition of AXL at 10 uM
[2] = target: T1, Mitogen-activated protein kinase 14 (Homo sapiens, UniProt Q16539); test: Inhibition of p38alpha-dependent TNFalpha production in human whole blood
[3] = target: RAC-alpha serine/threonine-protein kinase (Homo sapiens) (UniProt P31749); test: Inhibition of AKT1 at 10 uM
[4] = target: Serine/threonine-protein kinase N1 (Homo sapiens) (UniProt Q16512); test: Inhibition of PRK1 at 10 uM
[5] = target: Insulin-like growth factor 1 receptor (Homo sapiens) (UniProt P08069); test: Inhibition of IGF1R at 10 uM
[6] = target: Hepatocyte growth factor receptor (Homo sapiens) (UniProt P08581); test: Inhibition of MET at 10 uM
[7] = target: Casein kinase II subunit alpha (Homo sapiens) (UniProt P68400); test: Inhibition of CK2alpha1 at 10 uM
[8] = target: Aurora kinase B (Homo sapiens) (UniProt Q96GD4); test: Inhibition of AuroraB at 10 uM
[9] = target: Vascular endothelial growth factor receptor 2 (Homo sapiens) (UniProt P35968); test: Inhibition of VEGFR2 at 10 uM
[10] = target: Insulin receptor (Homo sapiens) (UniProt P06213); test: Inhibition of INSR at 10 uM
[11] = target: Proto-oncogene tyrosine-protein kinase Src (Homo sapiens) (UniProt P12931); test: Inhibition of SRC at 10 uM
[12] = target: T2, Serine/threonine-protein kinase PLK4 (Homo sapiens) (UniProt O00444); test: Inhibition of SAK at 10 uM
T2 sequence (whole entry): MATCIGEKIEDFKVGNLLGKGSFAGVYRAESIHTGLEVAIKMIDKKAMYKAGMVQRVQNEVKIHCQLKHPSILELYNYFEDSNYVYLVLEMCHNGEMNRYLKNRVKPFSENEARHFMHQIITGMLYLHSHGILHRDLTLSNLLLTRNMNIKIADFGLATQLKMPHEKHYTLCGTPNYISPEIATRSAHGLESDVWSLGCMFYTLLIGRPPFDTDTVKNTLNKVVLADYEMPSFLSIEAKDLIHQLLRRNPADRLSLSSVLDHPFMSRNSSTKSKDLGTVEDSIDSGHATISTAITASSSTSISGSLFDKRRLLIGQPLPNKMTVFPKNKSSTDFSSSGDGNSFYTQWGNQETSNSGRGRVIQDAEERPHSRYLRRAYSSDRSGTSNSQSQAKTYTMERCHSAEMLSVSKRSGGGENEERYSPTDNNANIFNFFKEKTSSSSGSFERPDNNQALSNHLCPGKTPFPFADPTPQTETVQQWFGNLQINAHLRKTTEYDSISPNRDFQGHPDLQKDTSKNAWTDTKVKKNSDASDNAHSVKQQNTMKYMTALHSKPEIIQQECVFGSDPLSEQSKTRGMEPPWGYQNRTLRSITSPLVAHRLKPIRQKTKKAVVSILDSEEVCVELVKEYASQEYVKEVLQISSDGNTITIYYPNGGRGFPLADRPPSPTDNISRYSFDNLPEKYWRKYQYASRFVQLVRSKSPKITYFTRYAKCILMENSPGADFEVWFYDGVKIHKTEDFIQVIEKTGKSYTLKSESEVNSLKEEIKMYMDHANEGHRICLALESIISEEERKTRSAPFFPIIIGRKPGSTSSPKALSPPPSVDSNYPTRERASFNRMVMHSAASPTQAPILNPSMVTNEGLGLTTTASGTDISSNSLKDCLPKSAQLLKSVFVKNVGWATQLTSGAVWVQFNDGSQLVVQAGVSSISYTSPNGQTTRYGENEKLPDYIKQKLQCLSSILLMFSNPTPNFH

[13] = target: T1, Mitogen-activated protein kinase 14; test: Inhibition of p38alpha by immunosorbent based kinase assay
[14] = target: BDNF/NT-3 growth factors receptor (Homo sapiens) (UniProt Q16620); test: Inhibition of TRKB at 10 uM
[15] = target: Serine/threonine-protein kinase PLK1 (Homo sapiens) (UniProt P53350); test: Inhibition of PLK1 at 10 uM
[16] = tested on: Serine/threonine-protein kinase B-raf (Homo sapiens), P15056 [V600E]; test: Inhibition of BRAF V600E mutant at 10 uM
[17] = target: T3, NUAK family SNF1-like kinase 1 (Homo sapiens) (UniProt O60285); test: Inhibition of ARK5 at 10 uM
T3 sequence (whole entry): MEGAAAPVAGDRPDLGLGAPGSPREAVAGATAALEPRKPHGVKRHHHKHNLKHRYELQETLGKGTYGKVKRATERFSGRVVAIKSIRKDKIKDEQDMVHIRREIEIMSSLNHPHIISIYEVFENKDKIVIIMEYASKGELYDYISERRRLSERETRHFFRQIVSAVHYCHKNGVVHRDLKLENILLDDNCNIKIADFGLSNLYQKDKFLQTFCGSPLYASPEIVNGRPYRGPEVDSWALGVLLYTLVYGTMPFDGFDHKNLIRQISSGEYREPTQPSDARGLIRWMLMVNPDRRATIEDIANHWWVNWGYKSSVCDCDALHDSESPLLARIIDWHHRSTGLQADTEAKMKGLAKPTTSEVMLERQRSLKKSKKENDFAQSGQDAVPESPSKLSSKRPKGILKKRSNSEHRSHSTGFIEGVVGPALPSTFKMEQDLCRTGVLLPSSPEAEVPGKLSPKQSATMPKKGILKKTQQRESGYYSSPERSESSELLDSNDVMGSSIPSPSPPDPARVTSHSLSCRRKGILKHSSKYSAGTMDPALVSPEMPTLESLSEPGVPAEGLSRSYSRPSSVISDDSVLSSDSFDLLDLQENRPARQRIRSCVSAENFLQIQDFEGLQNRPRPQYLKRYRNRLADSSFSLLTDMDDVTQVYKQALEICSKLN

[18] = target: Focal adhesion kinase 1 (Homo sapiens) (UniProt Q05397); test: Inhibition of FAK at 10 uM

Chain of Casein kinase II subunit alpha (Homo sapiens) (P68400 whole entry, looked up): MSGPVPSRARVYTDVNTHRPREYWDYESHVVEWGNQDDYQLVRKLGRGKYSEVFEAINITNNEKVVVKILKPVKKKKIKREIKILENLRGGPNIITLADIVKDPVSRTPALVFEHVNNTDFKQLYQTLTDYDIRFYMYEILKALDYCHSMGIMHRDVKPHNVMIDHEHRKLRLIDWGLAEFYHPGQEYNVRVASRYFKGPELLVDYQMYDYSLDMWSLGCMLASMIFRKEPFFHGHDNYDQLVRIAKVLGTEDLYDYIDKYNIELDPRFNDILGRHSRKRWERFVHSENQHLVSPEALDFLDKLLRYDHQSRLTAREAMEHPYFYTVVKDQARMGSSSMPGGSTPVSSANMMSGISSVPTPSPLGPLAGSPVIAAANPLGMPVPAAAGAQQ
Chain of Serine/threonine-protein kinase B-raf (Homo sapiens), P15056 [V600E] (P15056 whole entry V600E): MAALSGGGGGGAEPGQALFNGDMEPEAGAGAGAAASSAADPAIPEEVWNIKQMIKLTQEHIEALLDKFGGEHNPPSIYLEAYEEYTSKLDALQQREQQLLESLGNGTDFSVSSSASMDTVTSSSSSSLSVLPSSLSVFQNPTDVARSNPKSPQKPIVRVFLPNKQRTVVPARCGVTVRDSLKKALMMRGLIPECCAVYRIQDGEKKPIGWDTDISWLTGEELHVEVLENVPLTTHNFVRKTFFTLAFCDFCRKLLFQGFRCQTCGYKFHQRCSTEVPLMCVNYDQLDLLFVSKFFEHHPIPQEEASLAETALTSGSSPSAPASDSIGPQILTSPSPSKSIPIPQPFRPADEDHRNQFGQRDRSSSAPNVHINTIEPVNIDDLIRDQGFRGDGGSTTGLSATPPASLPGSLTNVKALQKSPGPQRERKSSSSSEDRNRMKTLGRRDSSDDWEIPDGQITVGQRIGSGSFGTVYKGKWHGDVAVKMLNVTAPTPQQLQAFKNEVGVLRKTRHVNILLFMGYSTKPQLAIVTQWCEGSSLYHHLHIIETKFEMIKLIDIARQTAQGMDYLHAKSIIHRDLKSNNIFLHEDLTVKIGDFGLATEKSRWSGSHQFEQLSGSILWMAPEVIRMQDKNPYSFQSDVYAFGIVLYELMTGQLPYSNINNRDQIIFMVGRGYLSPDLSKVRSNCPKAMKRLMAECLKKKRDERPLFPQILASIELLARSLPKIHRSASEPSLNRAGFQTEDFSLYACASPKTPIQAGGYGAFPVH
Chain of Serine/threonine-protein kinase N1 (Homo sapiens) (Q16512 2-942 limits assumed): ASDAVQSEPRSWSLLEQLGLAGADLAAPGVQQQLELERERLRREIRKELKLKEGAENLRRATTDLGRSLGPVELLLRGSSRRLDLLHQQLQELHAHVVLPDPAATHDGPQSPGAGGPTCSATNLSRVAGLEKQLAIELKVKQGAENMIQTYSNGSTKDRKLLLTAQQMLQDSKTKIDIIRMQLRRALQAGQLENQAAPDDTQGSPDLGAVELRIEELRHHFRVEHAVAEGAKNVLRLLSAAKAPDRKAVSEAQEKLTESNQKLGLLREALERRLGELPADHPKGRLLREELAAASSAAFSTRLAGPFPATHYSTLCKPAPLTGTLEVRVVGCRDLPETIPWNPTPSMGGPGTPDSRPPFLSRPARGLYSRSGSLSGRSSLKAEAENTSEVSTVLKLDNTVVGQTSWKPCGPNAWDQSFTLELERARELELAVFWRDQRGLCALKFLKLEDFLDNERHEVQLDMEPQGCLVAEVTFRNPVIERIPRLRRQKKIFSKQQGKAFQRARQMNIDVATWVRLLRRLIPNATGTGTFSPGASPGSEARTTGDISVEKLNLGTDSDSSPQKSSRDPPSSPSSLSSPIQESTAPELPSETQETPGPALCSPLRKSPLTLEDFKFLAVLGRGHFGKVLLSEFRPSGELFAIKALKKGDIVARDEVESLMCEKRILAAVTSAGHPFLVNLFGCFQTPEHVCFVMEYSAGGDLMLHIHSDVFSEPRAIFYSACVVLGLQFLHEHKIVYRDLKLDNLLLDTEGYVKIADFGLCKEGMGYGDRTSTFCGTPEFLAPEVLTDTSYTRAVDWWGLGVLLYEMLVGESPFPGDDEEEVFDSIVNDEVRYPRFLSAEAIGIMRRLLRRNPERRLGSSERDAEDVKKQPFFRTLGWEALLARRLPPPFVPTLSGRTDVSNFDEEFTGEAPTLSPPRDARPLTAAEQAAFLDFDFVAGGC
Chain of Vascular endothelial growth factor receptor 2 (Homo sapiens) (P35968 whole entry): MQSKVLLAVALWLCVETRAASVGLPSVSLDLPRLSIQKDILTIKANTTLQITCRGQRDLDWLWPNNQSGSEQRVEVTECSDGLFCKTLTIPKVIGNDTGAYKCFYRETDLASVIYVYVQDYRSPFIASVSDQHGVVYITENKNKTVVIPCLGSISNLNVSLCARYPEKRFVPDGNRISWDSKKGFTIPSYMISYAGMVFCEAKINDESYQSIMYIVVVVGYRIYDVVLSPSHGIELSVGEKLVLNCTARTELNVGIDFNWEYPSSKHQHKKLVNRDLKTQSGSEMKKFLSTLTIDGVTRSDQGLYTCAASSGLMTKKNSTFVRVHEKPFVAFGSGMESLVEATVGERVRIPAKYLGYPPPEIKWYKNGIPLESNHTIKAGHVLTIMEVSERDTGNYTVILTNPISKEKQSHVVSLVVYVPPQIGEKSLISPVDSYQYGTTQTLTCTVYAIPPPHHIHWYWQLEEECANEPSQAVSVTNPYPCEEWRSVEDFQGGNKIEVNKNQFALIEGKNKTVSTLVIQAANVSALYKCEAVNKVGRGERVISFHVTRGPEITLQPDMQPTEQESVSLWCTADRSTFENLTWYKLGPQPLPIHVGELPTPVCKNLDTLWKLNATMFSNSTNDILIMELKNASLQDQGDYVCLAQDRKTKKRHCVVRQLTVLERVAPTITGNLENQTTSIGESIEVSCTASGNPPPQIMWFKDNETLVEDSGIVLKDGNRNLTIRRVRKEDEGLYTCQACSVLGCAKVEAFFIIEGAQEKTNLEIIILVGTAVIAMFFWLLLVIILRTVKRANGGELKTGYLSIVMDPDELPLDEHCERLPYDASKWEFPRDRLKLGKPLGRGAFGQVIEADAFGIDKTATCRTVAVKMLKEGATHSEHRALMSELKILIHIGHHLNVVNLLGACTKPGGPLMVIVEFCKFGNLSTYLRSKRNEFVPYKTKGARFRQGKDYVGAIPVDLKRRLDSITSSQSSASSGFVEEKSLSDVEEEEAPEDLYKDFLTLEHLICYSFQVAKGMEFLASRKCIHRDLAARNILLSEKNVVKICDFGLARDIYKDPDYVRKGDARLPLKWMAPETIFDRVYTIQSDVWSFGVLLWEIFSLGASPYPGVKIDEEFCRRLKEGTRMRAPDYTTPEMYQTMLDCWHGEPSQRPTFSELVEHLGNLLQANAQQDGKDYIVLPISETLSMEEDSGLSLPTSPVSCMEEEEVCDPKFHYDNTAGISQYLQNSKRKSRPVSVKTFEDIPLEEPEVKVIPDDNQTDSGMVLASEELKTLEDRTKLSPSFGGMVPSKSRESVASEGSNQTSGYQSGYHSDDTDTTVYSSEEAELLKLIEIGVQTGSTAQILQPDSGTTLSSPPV
T1 sequence (Q16539 whole entry): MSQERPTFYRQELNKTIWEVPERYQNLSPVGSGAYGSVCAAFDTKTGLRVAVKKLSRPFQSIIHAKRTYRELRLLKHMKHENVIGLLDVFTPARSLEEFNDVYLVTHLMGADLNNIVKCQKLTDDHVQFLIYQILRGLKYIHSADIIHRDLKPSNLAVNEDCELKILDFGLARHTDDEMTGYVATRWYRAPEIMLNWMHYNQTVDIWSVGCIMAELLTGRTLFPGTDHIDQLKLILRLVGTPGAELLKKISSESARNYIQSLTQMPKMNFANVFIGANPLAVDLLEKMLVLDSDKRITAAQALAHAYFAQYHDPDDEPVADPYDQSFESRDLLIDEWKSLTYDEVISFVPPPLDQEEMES
Chain of Serine/threonine-protein kinase PLK1 (Homo sapiens) (P53350 whole entry): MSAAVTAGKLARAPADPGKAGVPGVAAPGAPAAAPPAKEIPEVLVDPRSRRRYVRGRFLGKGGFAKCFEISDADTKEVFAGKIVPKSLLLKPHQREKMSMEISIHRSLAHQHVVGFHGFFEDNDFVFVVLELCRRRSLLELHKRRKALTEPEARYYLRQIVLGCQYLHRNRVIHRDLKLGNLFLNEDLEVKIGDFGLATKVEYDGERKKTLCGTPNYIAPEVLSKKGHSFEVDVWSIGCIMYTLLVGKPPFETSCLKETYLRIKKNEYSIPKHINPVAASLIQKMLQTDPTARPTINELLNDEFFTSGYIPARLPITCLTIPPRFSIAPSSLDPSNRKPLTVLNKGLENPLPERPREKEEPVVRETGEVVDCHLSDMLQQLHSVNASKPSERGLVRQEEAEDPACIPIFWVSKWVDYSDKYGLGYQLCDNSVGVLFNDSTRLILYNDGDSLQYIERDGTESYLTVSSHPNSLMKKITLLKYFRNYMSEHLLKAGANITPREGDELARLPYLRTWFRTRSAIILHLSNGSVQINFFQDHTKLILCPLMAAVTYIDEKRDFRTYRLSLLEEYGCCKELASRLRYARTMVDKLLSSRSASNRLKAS
Chain of Proto-oncogene tyrosine-protein kinase Src (Homo sapiens) (P12931 2-536 limits assumed): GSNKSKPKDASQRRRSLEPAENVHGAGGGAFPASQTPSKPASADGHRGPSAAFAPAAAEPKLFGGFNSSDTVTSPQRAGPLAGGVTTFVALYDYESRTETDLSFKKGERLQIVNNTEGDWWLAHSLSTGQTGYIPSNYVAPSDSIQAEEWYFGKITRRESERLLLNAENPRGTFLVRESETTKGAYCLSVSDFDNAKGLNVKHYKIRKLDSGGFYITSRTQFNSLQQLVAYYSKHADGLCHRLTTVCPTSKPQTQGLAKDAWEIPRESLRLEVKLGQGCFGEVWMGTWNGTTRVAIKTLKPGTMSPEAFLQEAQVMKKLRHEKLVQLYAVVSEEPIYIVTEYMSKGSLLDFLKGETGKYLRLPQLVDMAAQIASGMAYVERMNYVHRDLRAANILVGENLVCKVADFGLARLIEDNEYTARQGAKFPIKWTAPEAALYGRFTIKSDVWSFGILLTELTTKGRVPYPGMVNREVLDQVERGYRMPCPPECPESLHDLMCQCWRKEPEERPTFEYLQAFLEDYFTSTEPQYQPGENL

Structure (SMILES)	inhibition [1]	pIC50 [2]	inhibition [3]	inhibition [4]	inhibition [5]	inhibition [6]	inhibition [7]	inhibition [8]	inhibition [9]	inhibition [10]	inhibition [11]	inhibition [12]	pIC50 [13]	inhibition [14]	inhibition [15]	inhibition [16]	inhibition [17]	inhibition [18]
COc1cccc2c1CCc1cc(Nc3ccc(F)cc3F)ccc1C2=O	inactive	4.10	inactive	inactive	inactive	inactive	inactive	inactive	inactive	inactive	inactive	inactive	7.10	inactive	inactive	inactive	inactive	inactive
CC1(C)OC[C@H](COc2ccc3c(c2)CCc2cc(Nc4ccc(F)cc4F)ccc2C3=O)O1	inactive	3.77	inactive	inactive	inactive	inactive	inactive	inactive	inactive	inactive	inactive	inactive	7.70	inactive	inactive	inactive	inactive	inactive
O=C1c2ccc(Nc3ccc(F)cc3F)cc2CCc2c(OCCN3CCOCC3)cccc21	inactive	3.70	inactive	inactive	inactive	inactive	inactive	inactive	inactive	inactive	inactive	inactive	7.52	inactive	inactive	inactive	inactive	inactive
O=C1c2ccc(Nc3ccc(F)cc3F)cc2CCc2cc(OC[C@H](O)CO)ccc21	inactive	4.98	inactive	inactive	inactive	inactive	inactive	inactive	inactive	inactive	inactive	inactive	7.52	inactive	inactive	inactive	inactive	inactive
Nc1ccccc1Nc1ccc2c(c1)CCc1c(OC[C@H](O)CO)cccc1C2=O	inactive	4.10	inactive	inactive	inactive	inactive	inactive	inactive	inactive	inactive	inactive	inactive	7.40	inactive	inactive	inactive	inactive	inactive

Other lines, results leading:

inhibition [1]	pIC50 [2]	inhibition [3]	inhibition [4]	inhibition [5]	inhibition [6]	inhibition [7]	inhibition [8]	inhibition [9]	inhibition [10]	inhibition [11]	inhibition [12]	pIC50 [13]	inhibition [14]	inhibition [15]	inhibition [16]	inhibition [17]	inhibition [18]	Structure (SMILES)
inactive	5.34	inactive	inactive	inactive	inactive	inactive	inactive	inactive	inactive	inactive	inactive	6.25	inactive	inactive	inactive	inactive	inactive	COc1ccc2c(c1)C(=O)c1ccc(Nc3ccccc3Cl)cc1CC2
inactive	5.37	inactive	inactive	inactive	inactive	inactive	inactive	inactive	inactive	inactive	inactive	7.30	inactive	inactive	inactive	inactive	inactive	COc1ccc2c(c1)C(=O)c1ccc(Nc3cc(F)cc(F)c3F)cc1CC2
inactive	4.59	inactive	inactive	inactive	inactive	inactive	inactive	inactive	inactive	inactive	inactive	6.05	inactive	inactive	inactive	inactive	inactive	COc1ccc2c(c1)C(=O)c1ccc(Nc3ccc(C(F)(F)F)cc3N)cc1CC2
inactive	7.10	inactive	inactive	inactive	inactive	inactive	inactive	inactive	inactive	inactive	inactive	7.70	inactive	inactive	inactive	inactive	inactive	Nc1ccccc1Nc1ccc2c(c1)CCc1ccc(OC[C@H](O)CO)cc1C2=O
